Values quoted from earlier work as cited in patent US8354043B2, “Natural gas odorization” (Enersol Inc., N.A.L.P., priority 2008, dated 2013).
Where a name gives a salt, the structure may show the parent alone.

conditions: 20° C. and 1 atm

Point of comparison: `O=C1CCCO1` [Compound 17, γ-Butyrolactone], “Pvap @ 20° C. (vapor pressure)” value 0.03 psi. Against it:
- CCCC(=O)C(C)=O [Compound 24, 2,3-Hexanedione] — higher, 0.19 psi
- CC(=O)CC(C)=O [Compound 25, Aceylacetone] — higher, 0.13 psi
- CC(=O)CCC(C)=O [Compound 27, 2,5-Hexanedione] — lower, 0.01 psi
- O=CC1CCCCC1 [Compound 34, Cyclohexanal] — higher, 0.05 psi
- O=CC1CCCC1 [Compound 36, Cyclopentaldehyde] — higher, 0.17 psi
- CC(=O)C=O [Compound 42, 2-Oxo-propanal] — higher, 0.52 psi
- CC=CC=O [Compound 43, 2-Butenal] — higher, 0.58 psi
- CCCOC=O [Compound 48, Propyl formate] — higher, 1.60 psi
- CC(C)OC=O [Compound 49, Isopropyl formate] — higher, 2.67 psi

same assay, conditions: 25° C. and 1 atm

Point of comparison: `O=CCCCC=O` [Compound 41, Pentane-1,5-dial], “Pvap @ 25° C. (vapor pressure)” value 0.01 psi. Against it:
- 3-Cyclohex-1-one [Compound 10] — higher, 0.04 psi
- O=c1ccocc1 [Compound 2, 4-Pyrone] — lower, 0.004 psi
- O=C1C=CCCC1 [Compound 9, 2-Cyclohex-2-en-1-one] — higher, 0.07 psi
- O=C1CCCCC1 [Compound 11, Cyclohexanone] — higher, 0.08 psi
- CC(=O)C1=CCCCC1 [Compound 13, 1-(1-Cyclohexen-1-yl)-ethanone] — lower, 0.003 psi
- O=C1CC=CO1 [Compound 15, 2(3H)-Furanone] — higher, 0.02 psi
- O=C1CCCO1 [Compound 17, γ-Butyrolactone] — the same, 0.01 psi
- O=C1C=CCC1 [Compound 18, 2-Cyclopenten-1-one] — higher, 0.18 psi
- CC(=O)C1CCCC1 [Compound 21, 1-Cyclopentyl-ethanone] — higher, 0.07 psi
- CCC(=O)C(C)=O [Compound 23, 2,3-Petanedione] — higher, 0.60 psi
- CCCC(=O)C(C)=O [Compound 24, 2,3-Hexanedione] — higher, 0.06 psi
- CC(=O)CC(C)=O [Compound 25, Aceylacetone] — higher, 0.06 psi
- CCC(=O)CC(C)=O [Compound 26, 2,4-Hexandione] — higher, 0.06 psi
- CC(=O)CCC(C)=O [Compound 27, 2,5-Hexanedione] — higher, 0.06 psi
- C=CC(C)=O [Compound 28, Methyl vinyl ketone] — higher, 2.94 psi
- C=CC(=O)CC [Compound 29, Ethyl vinyl ketone] — higher, 0.74 psi
- O=CC=O [Compound 38, Ethanedial] — higher, 4.93 psi
- O=CCC=O [Compound 39, Malondialdehyde] — higher, 0.09 psi
- CCOC=O [Compound 47, Ethyl formate] — higher, 4.74 psi

In the case of `CC(=O)C1CCCCC1` [Compound 12, Cyclohexyl methyl ketone], the “Pvap @ 25° C. (vapor pressure)” value is given as “.02 psi”.
